Measured values reported in patent publication US20070275877A1, “Methods for Treating or Ameliorating Ghrelin-Associated Diseases and Disorders” (AMYLIN PHARMACEUTICALS, INC., priority 2003, published 2007).
Each block holds one compound with its values, some of them ahead of it. No end group written: not given here.

Experiments:
ghrelin levels = assay: Crossover study of pramlintide in humans: ghrelin levels (Example 6); type: in vivo, human; conditions: single SC dose of pramlintide 30 μg, n=15, FIG. 6
Method: FIG. 6 depicts a graph of the effect of an amylin analog on ghrelin levels in humans.
(§1) Ghrelin levels were measured in a single-center, randomized, double-blind, placebo-controlled, two-period, crossover study was designed to examine the acute effects of pramlintide, an amylin analog, in humans. The study consisted of two treatment periods (Period 1/Visit 2 and Period 2/Visit 3) with at least 72 h between each treatment period. After successful completion of all Screening procedures (including informed consent), subjects (n=15) were randomly assigned to one of two treatment sequences (pramlintide: placebo or placebo: pramlintide). Subjects were instructed to fast from 2200 h on the evening before both treatment periods until the start of the test (the next morning).
On the mornings of Period 1 and Period 2, an intravenous cannula was placed in an antecubital vein for blood sampling (t=−1 h). Vital signs and weight were measured at this time. During each treatment period, subjects received study medication (pramlintide or placebo) immediately followed by a standardized, liquid preload meal, which was to be consumed within 3 min. Subjects received a single SC dose of pramlintide 30 μg or placebo. […] The buffet meal included a selection of carbohydrate-rich foods in quantities in excess of what subjects were expected to eat. […]

[1] = Crossover study of pramlintide in humans: ad libitum buffet meal intake (Example 6); type: in vivo, human; conditions: single SC dose of pramlintide 30 μg
Method: as §1
On the mornings of Period 1 and Period 2, an intravenous cannula was placed in an antecubital vein for blood sampling (t=−1 h). Vital signs and weight were measured at this time. During each treatment period, subjects received study medication (pramlintide or placebo) immediately followed by a standardized, liquid preload meal, which was to be consumed within 3 min. Subjects received a single SC dose of pramlintide 30 μg or placebo. One hour later (t=1 h), subjects consumed an ad libitum buffet meal, which was offered for 45 min. The buffet meal included a selection of carbohydrate-rich foods in quantities in excess of what subjects were expected to eat. Venous blood samples were collected over a 5.5-h period (t=−0.5 h to 5 h) for the measurement of postprandial metabolic and hormonal responses. Procedures for Period 2 were exactly as those described for Period 1, only the alternate treatment was given.

active ghrelin [2] = assay: Amylin receptor antagonist s.c., plasma ghrelin in non-fasted rats given pentagastrin (Example 4, FIG. 4A); type: in vivo; conditions: AC187 3 mg/rat s.c. at -5 min, pentagastrin 125 μg/kg s.c. at 0 min
Method: (§2) FIGS. 4A and 4B depict graphs of the effects of an amylin receptor antagonist on ghrelin levels in an animal model.
(§3) The following methods apply to Examples 1-4 as indicated. Male Harlan Sprague Dawley® (HSD) rats were housed at 22.8±0.8° C. in a 12:12 hour light:dark cycle. All experiments were performed in the light cycle. Animals were fasted for approximately 20 hours before experimentation (examples 1, 2 and 3) or fed ad libidum (Example 4). All animals were given free access to water until the start of the experiment. The animals' tails were anesthetized with 20% benzocaine (Hurricaine, Beutlich Pharmaceutical, Waukegan, Ill.), and blood samples were collected from the tail vein. Total and active ghrelin concentrations were measured using Linco RIA kits GHRA-89HK and GHRA-88HK, respectively.
These experiments were conducted to determine whether the amylin receptor antagonist AC187 blocked an effect of endogenous amylin on plasma ghrelin levels in non-fasted rats. Baseline blood samples for ghrelin to be assayed were taken at t=−10 min. AC187 (lot #AR741-72, Amylin Pharmaceuticals), at a dose of 3 mg/rat in 300 μl of saline, or saline vehicle alone, was given by subcutaneous injection (n=6, 8 respectively) at t=−5 min. Animals additionally received a subcutaneous injection of pentagastrin (Sigma, Lot#050K1525) in the amount of 125 μg/kg body mass at time=0 min. […]

active ghrelin [3] = assay: Amylin receptor antagonist i.v., plasma ghrelin in fed rats (Example 4, FIG. 4B); type: in vivo; conditions: AC187 3 mg/rat i.v.; five minutes after administration; fed animals; saline controls 1.4±6.4% decrease, P<0.03
Method: as §2, §3
In a second, related experiment, baseline blood samples for ghrelin to be assayed were taken at t=0 minutes. AC187 (lot#AR2237-18B, Amylin Pharmaceuticals, Inc.), at a dose of 3 mg/rat in 300 μl of saline or saline vehicle alone, was given by intravenous injection in the tail vein at t=0. Plasma samples were collected at time 0, 5, and 15 minutes. Five minutes after administration of AC187 in fed animals, active ghrelin concentrations increased by 16.3±4.0%, as compared to a 1.4±6.4% decrease in saline controls (P<0.03), see FIG. 4B.

[4] = treated test animals; e.g., provoking marked hyperlactemia followed by hyperglycemia; cited from earlier work
[5] = cited from earlier work
[6] = tested on: active (acylated) ghrelin; assay: Effect of rat amylin on ghrelin levels in pentagastrin-treated fasted rats (Example 1); type: in vivo; conditions: 10 μg rat amylin s.c. 20 min after 125 μg/kg pentagastrin s.c.
Method: FIG. 1 depicts a graph of the effect of exogenously administered rat amylin on endogenous ghrelin levels in an animal model. 125 μg pentagastrin (PG) was administered at t=0 and 10 μg amylin was administered at t=20 (dotted lines).
as §3
HSD rats were subjected to periodic blood sampling from the topically anesthetized tail and ghrelin levels were assayed. At t=0, rats (n=6) were injected s.c. with 125 μg/kg pentagastrin (Sigma) to stimulate gastric acid secretion (PG=0 min in FIG. 1), and 20 min later were injected subcutaneously (s.c.) with 10 μg rat amylin. The blood samples were analyzed for total and active (acylated) ghrelin (Linco).

total plasma ghrelin [7] = assay: Effect of rat amylin on ghrelin levels with and without pentagastrin in fasted rats (Example 2); type: in vivo
Method: FIGS. 2A and 2B depict graphs of the effect of rat amylin on ghrelin levels in an animal model in the presence and absence of pentagastrin.
as §3
These experiments were conducted to examine whether exogenous amylin inhibits ghrelin secretion independent of pentagastrin stimulation. Fasted rats were given either a subcutaneous injection of saline or of 30 μg/kg rat amylin (FIG. 2A) or a subcutaneous injection of either saline or 125 μg/kg pentagastrin (Sigma, Lot#050K1525) (FIG. 2B) at time=0 min. […]

total plasma ghrelin [8] = assay: Dose-response effects of amylin on ghrelin levels in fasted rats (Example 3); type: in vivo, rat
Method: FIGS. 3A and 3B depict graphs of dose-response effects of rat amylin on ghrelin levels in an animal model.
as §3
These experiments were conducted to identify dose-response effects of amylin on ghrelin levels in fasted rats. Rat amylin (lot #AR2081-42A, Amylin Pharmaceuticals) in 100 μl saline was given by subcutaneous injections at doses: 0, 1, 10, 30 and 100 μg/kg (n=5, 4, 5, 5, 4 respectively) at time=0 min. Blood plasma samples were collected at time=0, 10, 20, 30, 60, 90 and 120 min after amylin injection. […] Pairwise statistical analyses were performed using Student's t-test (Instat v2.0, GraphPad Software Inc, San Diego). Results are reported as mean±standard error of the mean, and P<0.05 is used as the level of significance.

active ghrelin [9] = assay: Amylin effect on ghrelin in area postrema-lesioned and sham operated rats (Example 5); type: in vivo, rat
Method: FIG. 5 depicts a graph of the effect of the area postrema on amylin's effect on ghrelin secretion.
In this experiment, fasted, Sprague-Dawley® rats with localized lesions of the area postrema (AP) made by vacuum aspiration 3 weeks before the experiments and sham operated rats (sham) were injected s.c. with amylin (30 μg/kg) or saline (n=4, 4 respectively). At t=0, 10, 20, 30, 60, 90 and 120 minutes after the s.c. injection, total ghrelin concentrations were measured and reports as % of the baseline.
Twenty minutes after a 30 μg/kg subcutaneous amylin injection in Sham rats, active ghrelin concentration decreased by 31.3±3.3%, while active ghrelin concentrations in saline controls increased by 23.5±22.1% (P<0.05).

Compound: CC[C@H](C)[C@H](NC(=O)[C@@H]1CCCN1C(=O)CNC(=O)[C@H](Cc1ccccc1)NC(=O)[C@H](CC(N)=O)NC(=O)[C@H](CC(N)=O)NC(=O)[C@H](CO)NC(=O)[C@H](CO)NC(=O)[C@H](Cc1c[nH]cn1)NC(=O)[C@@H](NC(=O)[C@H](CC(C)C)NC(=O)[C@H](Cc1ccccc1)NC(=O)[C@H](CC(N)=O)NC(=O)[C@H](C)NC(=O)[C@H](CC(C)C)NC(=O)[C@H](CCCNC(=N)N)NC(=O)[C@H](CCC(N)=O)NC(=O)[C@@H](NC(=O)[C@H](C)NC(=O)[C@@H]1CSSC[C@H](NC(=O)[C@@H](N)CCCCN)C(=O)N[C@@H](CC(N)=O)C(=O)N[C@@H]([C@@H](C)O)C(=O)N[C@@H](C)C(=O)N[C@@H]([C@@H](C)O)C(=O)N1)[C@@H](C)O)C(C)C)C(=O)N[C@@H](CC(C)C)C(=O)N1CCC[C@H]1C(=O)N1CCC[C@H]1C(=O)N[C@H](C(=O)N[C@@H](CC(N)=O)C(=O)N[C@H](C(=O)NCC(=O)N[C@@H](CO)C(=O)N[C@@H](CC(N)=O)C(=O)N[C@H](C(=O)N[C@@H](Cc1ccc(O)cc1)C(N)=O)[C@@H](C)O)C(C)C)[C@@H](C)O [pramlintide, ^25,28,29Pro-h-amylin]
ghrelin levels following an ad libitum buffet meal compared to placebo (ghrelin levels): further reduced
duration of the meal time compared to placebo [1]: reduced
fat, carbohydrate, and protein intake compared to placebo [1]: proportionate reductions
total caloric intake of the buffet meal compared to placebo [1]: reduced

increase of active ghrelin concentrations (active ghrelin [3]): 16.3±4.0%
Compound: Ac ^30Asn, ^32Tyr-sCT[8-32] [AC187]
active ghrelin concentrations compared to saline injected controls (active ghrelin [2]): higher

Compound: ^18Arg^25,28Pro-h-amylin (KCNTATCATQRLANFLVRSSNNFGPILPSTNVGSNTY)
amylin activity in vivo [4]: show amylin activity in vivo
solubility characteristics compared to human amylin [5]: more desirable

Compound: ^25Pro^26Val^28,29 Pro-h-amylin (KCNTATCATQRLANFLVHSSNNFGPVLPPTNVGSNTY)
solubility characteristics compared to human amylin [5]: more desirable

Compound: ^28Pro-h-amylin (KCNTATCATQRLANFLVHSSNNFGAILPSTNVGSNTY)
amylin activity in vivo [4]: show amylin activity in vivo

Compound: des-^1Lys-h-amylin (CNTATCATQRLANFLVHSSNNFGAILSSTNVGSNTY; ends and bridges not checked; cysteine pairing not given here; UniProt P10997 35-70, looked up, fragment)
amylin activity in vivo [4]: show amylin activity in vivo

Compound: des-^1Lys^18Arg^25,28Pro-h-amylin
amylin activity in vivo [4]: show amylin activity in vivo

Compound: rat amylin (KCNTATCATQRLANFLVRSSNNLGPVLPPTNVGSNTY; not fully specified; ends and bridges not checked; UniProt P12969 38-74, looked up) [rat amylin peptide hormone (AC0128, Amylin Pharmaceuticals)]
time within which active ghrelin was reduced by 50% [6]: ≤ 1 h
reduction of active ghrelin ([6]; FIG. 1): 50%
plasma ghrelin compared to the control, amylin alone (total plasma ghrelin [7]; 30 μg/kg rat amylin s.c. without pentagastrin): reduced
total plasma ghrelin compared to the saline control (total plasma ghrelin [7]; 30 μg/kg rat amylin s.c., FIGS. 2A and 2B): reduction in total plasma ghrelin
inhibition of ghrelin at lowest dose (total plasma ghrelin [8]; amylin dose of 1 μg/kg s.c.): trend to inhibit ghrelin
reduction of ghrelin, significance (total plasma ghrelin [8]; amylin doses of 10 μg/kg and above s.c., P<0.05 level): statistically significant
total plasma ghrelin concentrations, dose-response (total plasma ghrelin [8]; rat amylin s.c. 0, 1, 10, 30 and 100 μg/kg, fasted rats, FIG. 3A): dose-dependent reduction
time of ghrelin concentration nadirs after amylin injection (total plasma ghrelin [8]; rat amylin s.c. 1-100 μg/kg, fasted rats): 60 to 90 min
difference in ghrelin concentration, amylin versus saline (active ghrelin [9]; AP-lesioned rats, 30 μg/kg s.c. amylin, P=0.24): no significant difference
increase of ghrelin concentration (active ghrelin [9]; AP-lesioned rats, 30 μg/kg s.c. amylin, saline +49.6±21.0%, P=0.24): 13.7±17.6%
decrease of active ghrelin concentration (active ghrelin [9]; Sham rats, twenty minutes after 30 μg/kg s.c. amylin, saline controls increased by 23.5±22.1%, P<0.05): 31.3±3.3%
